System: 616215-338-R-J1-PDC tumor spheroids, viability
Experiment: Anticancer human tumor 616215-338-R-J1-PDC patient-derived colon adenocarcinoma cell line growth inhibition [GQUAD]
Conditions: spheroids with HUVEC and MSC; for IC50: curve of first compound; for viability, T/C: stronger effect = lower value
Summary of the method: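 Multi-cell-type spheroids of tumor cells with HUVEC and mesenchymal stem cells, treated with drug combinations. Concentrations descend in half-log steps from near clinical Cmax, or from 10 microM where Cmax is unknown; viability read-out.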

[1] = second compound 0.0316 µM, first compound 0.0316 µM
[2] = second compound 0.0316 µM, first compound 0.1 µM
[3] = second compound 0.0316 µM, first compound 0.316 µM
[4] = second compound 0.0316 µM, first compound 1 µM
[5] = second compound 0.0316 µM, first compound 3.16 µM
[6] = second compound 0.0316 µM, first compound 10 µM
[7] = second compound 0.1 µM, first compound 0.0316 µM
[8] = second compound 0.1 µM, first compound 0.1 µM
[9] = second compound 0.1 µM, first compound 0.316 µM
[10] = second compound 0.1 µM, first compound 1 µM
[11] = second compound 0.1 µM, first compound 3.16 µM
[12] = second compound 0.1 µM, first compound 10 µM
[13] = second compound 0.316 µM, first compound 0.0316 µM
[14] = second compound 0.316 µM, first compound 0.1 µM
[15] = second compound 0.316 µM, first compound 0.316 µM
[16] = second compound 0.316 µM, first compound 1 µM
[17] = second compound 0.316 µM, first compound 3.16 µM
[18] = second compound 0.316 µM, first compound 10 µM
[19] = second compound 1 µM, first compound 0.0316 µM
[20] = second compound 1 µM, first compound 0.1 µM
[21] = second compound 1 µM, first compound 0.316 µM
[22] = second compound 1 µM, first compound 1 µM
[23] = second compound 1 µM, first compound 3.16 µM
[24] = second compound 1 µM, first compound 10 µM
[25] = second compound 3.16 µM, first compound 0.0316 µM
[26] = second compound 3.16 µM, first compound 0.1 µM
[27] = second compound 3.16 µM, first compound 0.316 µM
[28] = second compound 3.16 µM, first compound 1 µM
[29] = second compound 3.16 µM, first compound 3.16 µM
[30] = second compound 3.16 µM, first compound 10 µM
[31] = second compound 10 µM, first compound 0.0316 µM
[32] = second compound 10 µM, first compound 0.1 µM
[33] = second compound 10 µM, first compound 0.316 µM
[34] = second compound 10 µM, first compound 1 µM
[35] = second compound 10 µM, first compound 3.16 µM
[36] = second compound 10 µM, first compound 10 µM
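Also: spheroids exposed to agents for 7 days before readout.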
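For viability, T/C in this document: percent viability relative to DMSO vehicle control wells taken as 100%.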

Structure (SMILES): CC(=O)O[C@H]1C(=O)[C@@]2(C)[C@H]([C@H](OC(=O)c3ccccc3)[C@]3(O)C[C@H](OC(=O)[C@H](O)[C@@H](NC(=O)c4ccccc4)c4ccccc4)C(C)=C1C3(C)C)[C@]1(OC(C)=O)CO[C@@H]1C[C@@H]2O + Cc1cnc(CNC(=O)c2c(=O)c3ccc(N4CCCN(C)CC4)nc3n3c2sc2ccccc23)cn1
- IC50 (second compound 0.0316 µM): < 31.6 nM
- IC50 (second compound 0.1 µM): < 31.6 nM
- IC50 (second compound 0.316 µM): < 31.6 nM
- IC50 (second compound 1 µM): < 31.6 nM
- IC50 (second compound 3.16 µM): < 31.6 nM
- IC50 (second compound 10 µM): < 31.6 nM
- viability, T/C [1]: 37.2%
- viability, T/C [2]: 24.9%
- viability, T/C [3]: 20.3%
- viability, T/C [4]: 15.9%
- viability, T/C [5]: 27.6%
- viability, T/C [6]: 17.1%
- viability, T/C [7]: 26.9%
- viability, T/C [8]: 35.8%
- viability, T/C [9]: 31.1%
- viability, T/C [10]: 26.7%
- viability, T/C [11]: 26.2%
- viability, T/C [12]: 32%
- viability, T/C [13]: 37%
- viability, T/C [14]: 34.4%
- viability, T/C [15]: 38.5%
- viability, T/C [16]: 36.4%
- viability, T/C [17]: 39.4%
- viability, T/C [18]: 24.7%
- viability, T/C [19]: 22.9%
- viability, T/C [20]: 35.4%
- viability, T/C [21]: 30.1%
- viability, T/C [22]: 37.9%
- viability, T/C [23]: 30.2%
- viability, T/C [24]: 33.8%
- viability, T/C [25]: 26.6%
- viability, T/C [26]: 21.6%
- viability, T/C [27]: 28.9%
- viability, T/C [28]: 35.8%
- viability, T/C [29]: 22.5%
- viability, T/C [30]: 30.2%
- viability, T/C [31]: 25%
- viability, T/C [32]: 22.3%
- viability, T/C [33]: 27.9%
- viability, T/C [34]: 25%
- viability, T/C [35]: 24.4%
- viability, T/C [36]: 25.8%

Structure (SMILES): CCc1c2c(nc3ccc(O)cc13)-c1cc3c(c(=O)n1C2)COC(=O)[C@]3(O)CC + CN(C)c1ccc(Nc2c3ccc(NC(=O)CCN4CCCC4)cc3nc3cc(NC(=O)CCN4CCCC4)ccc23)cc1
- IC50 (second compound 0.0316 µM): 14.3 nM
- IC50 (second compound 0.1 µM): 17.4 nM
- IC50 (second compound 0.316 µM): 14.6 nM
- IC50 (second compound 1 µM): 12.4 nM
- IC50 (second compound 3.16 µM): 11.3 nM
- IC50 (second compound 10 µM): 8.62 nM
- viability, T/C (second compound 0.0316 µM, first compound 0.000999 µM): 93.8%
- viability, T/C (second compound 0.0316 µM, first compound 0.00316 µM): 92.4%
- viability, T/C (second compound 0.0316 µM, first compound 0.00999 µM): 53.7%
- viability, T/C [1]: 32.6%
- viability, T/C (second compound 0.0316 µM, first compound 0.0999 µM): 18.1%
- viability, T/C [3]: 8.35%
- viability, T/C (second compound 0.1 µM, first compound 0.000999 µM): 112%
- viability, T/C (second compound 0.1 µM, first compound 0.00316 µM): 99.8%
- viability, T/C (second compound 0.1 µM, first compound 0.00999 µM): 70.3%
- viability, T/C [7]: 28.9%
- viability, T/C (second compound 0.1 µM, first compound 0.0999 µM): 13.8%
- viability, T/C [9]: 12.4%
- viability, T/C (second compound 0.316 µM, first compound 0.000999 µM): 101%
- viability, T/C (second compound 0.316 µM, first compound 0.00316 µM): 96.7%
- viability, T/C (second compound 0.316 µM, first compound 0.00999 µM): 59.9%
- viability, T/C [13]: 27%
- viability, T/C (second compound 0.316 µM, first compound 0.0999 µM): 18%
- viability, T/C [15]: 8.81%
- viability, T/C (second compound 1 µM, first compound 0.000999 µM): 97.3%
- viability, T/C (second compound 1 µM, first compound 0.00316 µM): 94.3%
- viability, T/C (second compound 1 µM, first compound 0.00999 µM): 46.9%
- viability, T/C [19]: 35%
- viability, T/C (second compound 1 µM, first compound 0.0999 µM): 20.5%
- viability, T/C [21]: 10.3%
- viability, T/C (second compound 3.16 µM, first compound 0.000999 µM): 98.3%
- viability, T/C (second compound 3.16 µM, first compound 0.00316 µM): 86.8%
- viability, T/C (second compound 3.16 µM, first compound 0.00999 µM): 49.3%
- viability, T/C [25]: 30.2%
- viability, T/C (second compound 3.16 µM, first compound 0.0999 µM): 19.3%
- viability, T/C [27]: 12.6%
- viability, T/C (second compound 10 µM, first compound 0.000999 µM): 95.7%
- viability, T/C (second compound 10 µM, first compound 0.00316 µM): 73.9%
- viability, T/C (second compound 10 µM, first compound 0.00999 µM): 46%
- viability, T/C [31]: 25.9%
- viability, T/C (second compound 10 µM, first compound 0.0999 µM): 13.2%
- viability, T/C [33]: 8.62%

Structure (SMILES): O=C(c1cc(Cc2n[nH]c(=O)c3ccccc23)ccc1F)N1CCN(C(=O)C2CC2)CC1 + Cc1cnc(CNC(=O)c2c(=O)c3ccc(N4CCCN(C)CC4)nc3n3c2sc2ccccc23)cn1
- IC50 (second compound 0.0316 µM): > 10000 nM
- IC50 (second compound 0.1 µM): > 10000 nM
- IC50 (second compound 0.316 µM): < 31.6 nM
- IC50 (second compound 1 µM): < 31.6 nM
- IC50 (second compound 3.16 µM): < 31.6 nM
- IC50 (second compound 10 µM): < 31.6 nM
- viability, T/C [1]: 97.3%
- viability, T/C [2]: 103%
- viability, T/C [3]: 107%
- viability, T/C [4]: 87.9%
- viability, T/C [5]: 84.3%
- viability, T/C [6]: 68.7%
- viability, T/C [7]: 68.5%
- viability, T/C [8]: 69.3%
- viability, T/C [9]: 74.4%
- viability, T/C [10]: 64.3%
- viability, T/C [11]: 53.9%
- viability, T/C [12]: 51.5%
- viability, T/C [13]: 43.6%
- viability, T/C [14]: 39.4%
- viability, T/C [15]: 46.4%
- viability, T/C [16]: 52.2%
- viability, T/C [17]: 36.1%
- viability, T/C [18]: 35.1%
- viability, T/C [19]: 42.8%
- viability, T/C [20]: 28.7%
- viability, T/C [21]: 30.4%
- viability, T/C [22]: 54.8%
- viability, T/C [23]: 38.5%
- viability, T/C [24]: 26.7%
- viability, T/C [25]: 28.1%
- viability, T/C [26]: 26.6%
- viability, T/C [27]: 23.2%
- viability, T/C [28]: 28.7%
- viability, T/C [29]: 41.4%
- viability, T/C [30]: 30.3%
- viability, T/C [31]: 36.6%
- viability, T/C [32]: 28.7%
- viability, T/C [33]: 25.2%
- viability, T/C [34]: 22.7%
- viability, T/C [35]: 44.1%
- viability, T/C [36]: 24.3%

— PubChem BioAssay AID2060493 (Molecular Pharmacology Branch, DTP, NCI, 2025)
